The target of the experiment is T1, human PTH1 receptor (Homo sapiens, UniProt Q03431).
T1 sequence (Q03431 27-593): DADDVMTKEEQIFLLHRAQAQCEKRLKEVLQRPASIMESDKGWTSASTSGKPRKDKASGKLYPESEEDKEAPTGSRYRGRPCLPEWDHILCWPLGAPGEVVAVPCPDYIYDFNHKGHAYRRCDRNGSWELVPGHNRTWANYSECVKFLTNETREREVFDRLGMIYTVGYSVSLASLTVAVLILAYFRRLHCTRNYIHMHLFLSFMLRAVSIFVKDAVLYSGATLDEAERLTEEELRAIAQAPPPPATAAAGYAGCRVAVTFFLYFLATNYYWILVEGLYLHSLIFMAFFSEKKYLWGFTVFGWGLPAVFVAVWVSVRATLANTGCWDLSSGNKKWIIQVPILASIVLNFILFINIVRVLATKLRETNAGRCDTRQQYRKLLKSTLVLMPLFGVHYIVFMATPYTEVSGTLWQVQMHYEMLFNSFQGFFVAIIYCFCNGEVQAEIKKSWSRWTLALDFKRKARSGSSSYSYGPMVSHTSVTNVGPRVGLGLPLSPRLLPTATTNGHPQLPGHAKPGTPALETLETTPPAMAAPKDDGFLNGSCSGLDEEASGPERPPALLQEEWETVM
The experiment in a line: In vitro cAMP signal activity in HKRK-B7 cells (LLC-PK1 cells overexpressing the human PTH1 receptor). The format is cell-based.

Where [1] appears, read: HKRK-B7 cells, compound at 1×10^−3 M, cAMP produced as percentage of that produced by hPTH(1-34) at 100 nM.

`Cl.[2H]C([2H])([2H])Nc1cc(C)c(/C=C/S(=O)(=O)N2CCC3(CC2)N=C(c2ccc(F)c(C(F)(F)F)c2)NC3=O)c(C)c1` [Compound 1288, 8-[(E)-2-(2,6-dimethyl-4-[1,1,1-^2H3]methylamino-phenyl)-ethenesulfonyl]-2-(4-fluoro-3-trifluoromethyl-phenyl)-1,3,8-triaza-spiro[4.5]dec-1-en-4-one hydrochloride]: under setting [1], the “cAMP production activity (%)” value worked out at 54%.

For the compound `Cc1cc(C(=O)N2CCN(C(C)C)CC2)ccc1CCS(=O)(=O)N1CCC2(CC1)N=C(c1cccc(C(F)(F)F)c1)NC2=O` [Compound 376, 8-{2-[4-(4-isopropyl-piperazine-1-carbonyl)-2-methyl-phenyl]-ethanesulfonyl}-2-(3-trifluoromethyl-phenyl)-1,3,8-triaza-spiro[4.5]dec-1-en-4-one], the “cAMP production activity (%)” value under setting [1] was determined as 74%.

On to `Cn1cc(-c2ccccc2CCS(=O)(=O)N2CCC3(CC2)N=C(C2CCCCC2)NC3=O)cn1` [Compound 340, 2-cyclohexyl-8-{2-[2-(1-methyl-1H-pyrazol-4-yl)-phenyl]-ethanesulfonyl}-1,3,8-triaza-spiro[4.5]dec-1-en-4-one], for which, under setting [1], the “cAMP production activity (%)” value is given as 67%.

For `Cc1cc(C(=O)N2CCC(O)(CF)CC2)cc(C)c1/C=C/S(=O)(=O)N1CCC2(CC1)N=C(c1ccc(OCC(F)(F)C(F)(F)F)c(C(F)(F)F)c1)NC2=O` [Compound 1249, 8-{(E)-2-[4-(4-fluoromethyl-4-hydroxy-piperidine-1-carbonyl)-2,6-dimethyl-phenyl]-ethenesulfonyl}-2-[4-(2,2,3,3,3-pentafluoro-propoxy)-3-trifluoromethyl-phenyl]-1,3,8-triaza-spiro[4.5]dec-1-en-4-one], the “cAMP production activity (%)” value under setting [1] is recorded as 62%.

`Cc1cc(S(=O)(=O)NCC(F)(F)C(F)(F)C(F)(F)F)ccc1CCS(=O)(=O)N1CCC2(CC1)N=C(c1cccc(C(F)(F)F)c1)NC2=O` [Compound 667, N-(2,2,3,3,4,4,4-Heptafluoro-butyl)-3-methyl-4-{2-[4-oxo-2-(3-trifluoromethyl-phenyl)-1,3,8-triaza-spiro[4.5]dec-1-ene-8-sulfonyl]-ethyl}-benzenesulfonamide]: the “cAMP production activity (%)” value (0.1 µM) came out at 40%.

Turning to `COc1cccc(CCS(=O)(=O)N2CCC3(CC2)N=C([C@H]2CC[C@H](C)CC2)NC3=O)c1C` [Compound 668, 8-[2-(3-Methoxy-2-methyl-phenyl)-ethanesulfonyl]-2-(4-methyl-cyclohexyl)-1,3,8-triaza-spiro[4.5]dec-1-en-4-one], under setting [1], the “cAMP production activity (%)” value worked out at 40%.

With `Cc1cc(C(=O)N2CCC(C)(O)CC2)cc(C)c1/C=C/S(=O)(=O)N1CCC2(CC1)N=C(C1CCC(C)CC1)NC2=O` (stereo not shown) [Compound 999, 8-{(E)-2-[4-(4-hydroxy-4-methyl-piperidine-1-carbonyl)-2,6-dimethyl-phenyl]-ethenesulfonyl}-2-(4-methyl-cyclohexyl)-1,3,8-triaza-spiro[4.5]dec-1-en-4-one], the “cAMP production activity (%)” value under setting [1] is reported as 61%.

On to `Cc1cc(CN2C(=O)CCC2=O)cc(C)c1/C=C/S(=O)(=O)N1CCC2(CC1)N=C(C1CCC(C)CC1)NC2=O` (stereo not shown) [Compound 521, 1-(3,5-dimethyl-4-{(E)-2-[2-(4-methyl-cyclohexyl)-4-oxo-1,3,8-triaza-spiro[4.5]dec-1-ene-8-sulfonyl]-vinyl}-benzyl)-pyrrolidine-2,5-dione], for which the “cAMP production activity (%)” value under setting [1] stood at 55%.

For the compound `CCCCCCCCCC1=NC2(CCN(S(=O)(=O)/C=C/c3c(C)cc(N4C(=O)CNC4=O)cc3C)CC2)C(=O)N1` [Compound 539, 3-{3,5-dimethyl-4-[(E)-2-(2-nonyl-4-oxo-1,3,8-triaza-spiro[4.5]dec-1-ene-8-sulfonyl)-vinyl]-phenyl}-imidazolidine-2,4-dione], the “cAMP production activity (%)” value under setting [1] came out at 80%.

In the case of `Cc1cc(N(C)C(N)=O)cc(C)c1/C=C/[S@TB3](=O)(=O)N1CCC2(CC1)N=C(c1cccc(C(F)(F)C(F)(F)C(F)(F)C(F)(F)F)c1)NC2=O` [Compound 1112, 1-(3,5-dimethyl-4-{(E)-2-[2-(3-nonafluorobutyl-phenyl)-4-oxo-1,3,8-triaza-spiro[4.5]dec-1-ene-8-sulfonyl]-vinyl}-phenyl)-1-methyl-urea], the “cAMP production activity (%)” value (0.1 µM) amounted to 76%.

Regarding `Cc1cc(C(=O)N2CCN(C(C)(C)C)CC2)ccc1CCS(=O)(=O)N1CCC2(CC1)N=C(c1cccc(C(F)(F)F)c1)NC2=O` [Compound 373, 8-{2-[4-(4-tert-butyl-piperazine-1-carbonyl)-2-methyl-phenyl]-ethanesulfonyl}-2-(3-trifluoromethyl-phenyl)-1,3,8-triaza-spiro[4.5]dec-1-en-4-one], under setting [1], the “cAMP production activity (%)” value was determined as 70%.

As for `Cc1cc(C(=O)N(C)C)ccc1CCS(=O)(=O)N1CCC2(CC1)N=C(CCC1CCCCC1)NC2=O` [Compound 108, 4-{2-[2-(2-cyclohexyl-ethyl)-4-oxo-1,3,8-triaza-spiro[4.5]dec-1-ene-8-sulfonyl]-ethyl}-3,N,N-trimethyl-benzamide], the “cAMP production activity (%)” value under setting [1] came to 62%.

As for `O=C1NC(c2cccc(OC(F)(F)F)c2)=NC12CCN(S(=O)(=O)CCc1cccc3c1OC(F)(F)O3)CC2` [Compound 307, 8-[2-(2,2-difluoro-benzo[1,3]dioxol-4-yl)-ethanesulfonyl]-2-(3-trifluoromethoxy-phenyl)-1,3,8-triaza-spiro[4.5]dec-1-en-4-one], the “cAMP production activity (%)” value under setting [1] was 58%.

For the compound `CCCCC1CCC(C2=NC3(CCN(S(=O)(=O)/C=C/c4c(C)cc(C(=O)N5CCC(OCCOCCO)CC5)cc4C)CC3)C(=O)N2)CC1` (stereo not shown) [Compound 1009, 2-(4-butyl-cyclohexyl)-8-[(E)-2-(4-{4-[2-(2-hydroxy-ethoxy)-ethoxy]-piperidine-1-carbonyl}-2,6-dimethyl-phenyl)-ethenesulfonyl]-1,3,8-triaza-spiro[4.5]dec-1-en-4-one], the “cAMP production activity (%)” value under setting [1] stood at 70%.

On to `Cc1cc(C(=O)N2CCC(C)(O)CC2)cc(C)c1/C=C/S(=O)(=O)N1CCC2(CC1)N=C(c1ccc(COc3cccc(C(F)(F)F)c3)cc1)NC2=O` [Compound 1191, 8-{(E)-2-[4-(4-hydroxy-4-methyl-piperidine-1-carbonyl)-2,6-dimethyl-phenyl]-ethenesulfonyl}-2-[4-(3-trifluoromethyl-phenoxymethyl)-phenyl]-1,3,8-triaza-spiro[4.5]dec-1-en-4-one], for which the “cAMP production activity (%)” value under setting [1] came out at 66%.

As to `NS(=O)(=O)CCCn1ccc2c(/C=C/S(=O)(=O)N3CCC4(CC3)N=C(C3CCCCC3)NC4=O)cccc21` [Compound 484, 3-{4-[(E)-2-(2-cyclohexyl-4-oxo-1,3,8-triaza-spiro[4.5]dec-1-ene-8-sulfonyl)-vinyl]-indol-1-yl}-propane-1-sulfonic acid amide], under setting [1], the “cAMP production activity (%)” value came to 47%.

Regarding `CC(=O)Nc1ccc(CCS(=O)(=O)N2CCC3(CC2)N=C(C2CCCCC2)NC3=O)cc1` [Compound 167, N-{4-[2-(2-Cyclohexyl-4-oxo-1,3,8-triaza-spiro[4.5]dec-1-ene-8-sulfonyl)-ethyl]-phenyl}-acetamide], the “cAMP production activity (%)” value under setting [1] is on record as 44%.

Regarding `Cc1cc(C(=O)N2CCC(C)(O)CC2)cc(C)c1/C=C/S(=O)(=O)N1CCC2(CC1)N=C(c1ccc3c(c1)OC(F)(F)O3)NC2=O` [Compound 1163, 2-(2,2-Difluoro-benzo[1,3]dioxol-5-yl)-8-{(E)-2-[4-(4-hydroxy-4-methyl-piperidine-1-carbonyl)-2,6-dimethyl-phenyl]-ethenesulfonyl}-1,3,8-triaza-spiro[4.5]dec-1-en-4-one], under setting [1], the “cAMP production activity (%)” value came out at 101%.

On to `CNC(=O)Nc1cccc(CCS(=O)(=O)N2CCC3(CC2)N=C(C2CCCCC2)NC3=O)c1C` [Compound 459, 1-{3-[2-(2-Cyclohexyl-4-oxo-1,3,8-triaza-spiro[4.5]dec-1-ene-8-sulfonyl)-ethyl]-2-methyl-phenyl}-3-methyl-urea], for which, under “HKRK-B7 cells, compound at 1×10^−3 M, […], 0.1 µM”, the “cAMP production activity (%)” value is recorded as 55%.

Take `Cc1cc(N(CCF)C(N)=O)cc(C)c1/C=C/S(=O)(=O)N1CCC2(CC1)N=C(C1CCC(CCC(F)(F)F)CC1)NC2=O` (stereo not shown) [Compound 694, 1-[3,5-Dimethyl-4-((E)-2-{4-oxo-2-[4-(3,3,3-trifluoro-propyl)-cyclohexyl]-1,3,8-triaza-spiro[4.5]dec-1-ene-8-sulfonyl}-vinyl)-phenyl]-1-(2-fluoro-ethyl)-urea]: under setting [1], the “cAMP production activity (%)” value came out at 77%.

For the compound `O=C(NCCO)Nc1ccc(/C=C/S(=O)(=O)N2CCC3(CC2)N=C(C2CCCCC2)NC3=O)c(C(F)(F)F)c1` [Compound 198, 1-{4-[(E)-2-(2-cyclohexyl-4-oxo-1,3,8-triaza-spiro[4.5]dec-1-ene-8-sulfonyl)-vinyl]-3-trifluoromethyl-phenyl}-3-(2-hydroxy-ethyl)-urea], under setting [1], the “cAMP production activity (%)” value came to 31%.

In the case of `Cc1cc(C(=O)N2CCC(CCO)CC2)ccc1CCS(=O)(=O)N1CCC2(CC1)N=C(c1cccc(C(F)(F)F)c1)NC2=O` [Compound 357, 8-(2-{4-[4-(2-hydroxy-ethyl)-piperidine-1-carbonyl]-2-methyl-phenyl}-ethanesulfonyl)-2-(3-trifluoromethyl-phenyl)-1,3,8-triaza-spiro[4.5]dec-1-en-4-one], the “cAMP production activity (%)” value under setting [1] turned out to be 78%.

The record behind these values is patent publication US9169254B2, “Spiroimidazolone derivative” (Chugai Seiyaku Kabushiki Kaisha, priority 2009, dated 2015).
